Results on 27 molecules are retold here after US8563542B2 (Cyclacel Limited, priority 2007, dated 2013).

The target of one test is T1, AA (Homo sapiens, UniProt O14965).
T1 sequence (O14965 1-403): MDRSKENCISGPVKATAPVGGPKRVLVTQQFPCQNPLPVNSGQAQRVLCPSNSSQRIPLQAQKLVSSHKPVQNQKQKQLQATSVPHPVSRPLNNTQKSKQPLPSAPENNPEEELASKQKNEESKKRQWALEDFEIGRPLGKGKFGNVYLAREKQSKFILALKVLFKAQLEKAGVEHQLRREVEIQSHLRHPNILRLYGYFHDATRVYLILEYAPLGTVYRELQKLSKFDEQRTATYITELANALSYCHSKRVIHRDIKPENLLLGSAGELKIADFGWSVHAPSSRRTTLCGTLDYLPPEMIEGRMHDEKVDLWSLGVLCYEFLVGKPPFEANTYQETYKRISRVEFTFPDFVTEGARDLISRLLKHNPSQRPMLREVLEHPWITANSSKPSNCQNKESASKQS
The test is described as follows: AA IC50 (Table 1; no method given). The format is biochemical.

The target in a further test is PLK1 (Homo sapiens, UniProt P53350). The test is described as follows: PLK1 protein kinase assay (CDC25C phosphorylation, [γ-32P]-ATP). The test is classed as biochemical. The settings on record: Table 2, PLK1 IC50; class symbols; read-out: PLK1 IC50.
Chain of PLK1 (P53350 whole entry): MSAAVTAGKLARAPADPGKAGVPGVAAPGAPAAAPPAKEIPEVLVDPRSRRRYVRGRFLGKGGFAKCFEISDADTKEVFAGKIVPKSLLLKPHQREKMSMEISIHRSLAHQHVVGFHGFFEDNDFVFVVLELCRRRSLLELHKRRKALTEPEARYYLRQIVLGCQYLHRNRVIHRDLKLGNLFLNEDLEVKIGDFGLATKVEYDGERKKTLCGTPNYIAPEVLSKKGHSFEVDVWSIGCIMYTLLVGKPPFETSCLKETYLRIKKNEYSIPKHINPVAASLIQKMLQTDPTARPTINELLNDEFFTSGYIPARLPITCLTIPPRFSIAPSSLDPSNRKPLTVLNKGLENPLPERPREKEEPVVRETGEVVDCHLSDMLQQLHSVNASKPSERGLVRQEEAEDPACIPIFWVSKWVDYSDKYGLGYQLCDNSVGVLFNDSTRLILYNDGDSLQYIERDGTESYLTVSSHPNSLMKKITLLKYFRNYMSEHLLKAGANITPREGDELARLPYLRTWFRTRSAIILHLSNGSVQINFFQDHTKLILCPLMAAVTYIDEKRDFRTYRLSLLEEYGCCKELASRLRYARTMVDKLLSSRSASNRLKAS
[1] abbreviates: Table 2, AurA IC50, class symbols, read-out: AurA IC50.

Molecules are shown by their SMILES. Structures can show the parent of a compound that is named as a salt. Where two headings read alike, the source gives them in different places.

The IC50 is the concentration that inhibits the measured activity by half.

`COc1cc(C(=O)O)ccc1Nc1ncc2c(n1)N(C1CCCCC1)CCC(=O)N2` [compound 9, 4-(9-Cyclohexyl-6-oxo-6,7,8,9-tetrahydro-5H-pyrimido[4,5-b][1,4]diazepin-2-ylamino)-3-methoxy-benzoic acid]: on AA (Table 1, read-out: AA IC50), the IC50 lay in the range of 1000 to 10000 nM.

Take `CN1C(=O)CCN(C(C)(C)C)c2nc(Nc3ccc(C(=O)O)cc3)ncc21` [compound 43, 4-(9-tert-Butyl-5-methyl-6-oxo-6,7,8,9-tetrahydro-5H-pyrimido[4,5-b][1,4]diazepin-2-ylamino)-benzoic acid]: the IC50 on AA (setting [1]) is under 1000 nM. On the same count and under the same terms, the figure for `COc1cc(C(=O)NC2CCN(C)CC2)ccc1Nc1ncc2c(n1)N(Cc1ccc(OC)c(OC)c1)CC(C)C(=O)N2C` (stereo not drawn) [compound 44, 4-[9-(3,4-Dimethoxy-benzyl)-5,7-dimethyl-6-oxo-6,7,8,9-tetrahydro-5H-pyrimido[4,5-b][1,4]diazepin-2-ylamino]-3-methoxy-N-(1-methyl-piperidin-4-yl)-benzamide] is under 10000 nM. With `COc1ccc(CN2CC(C)C(=O)N(C)c3cnc(Nc4ccc(C(=O)O)cc4)nc32)cc1OC` (stereo not drawn) [compound 45, 4-[9-(3,4-Dimethoxy-benzyl)-5,7-dimethyl-6-oxo-6,7,8,9-tetrahydro-5H-pyrimido[4,5-b][1,4]diazepin-2-ylamino]-benzoic acid], the IC50 at AA (setting [1]) is under 10000 nM. On the same count and under the same terms, the figure for `CN1CCC(NC(=O)c2ccc(Nc3ncc4c(n3)N(C3CCCC3)CCC(=O)N4C)cc2)CC1` [compound 64, 4-(9-Cyclopentyl-5-methyl-6-oxo-6,7,8,9-tetrahydro-5H-pyrimido[4,5-b][1,4]diazepin-2-ylamino)-N-(1-methyl-piperidin-4-yl)-benzamide] is under 100 nM. Still for that read-out and setting: the figure for `Cc1cc(Nc2ncc3c(n2)N(C2CCCC2)CCC(=O)N3C)ccc1Cl` [compound 72, 2-(4-Chloro-3-methyl-phenylamino)-9-cyclopentyl-5-methyl-5,7,8,9-tetrahydro-pyrimido[4,5-b][1,4]diazepin-6-one] is under 1000 nM; for `CN1C(=O)CCN(c2ccccc2F)c2nc(Nc3ccc4c(c3)CS(=O)(=O)C4)ncc21` [compound 73, 2-(2,2-Dioxo-2,3-dihydro-1H-2lambda*6*- benzo[c]thiophen-5-ylamino)-9-(2-fluoro-phenyl)-5-methyl-5,7,8,9-tetrahydro-pyrimido[4,5-b][1,4]diazepin-6-one] it is under 100 nM; for `CN1C(=O)CCN(c2ccccc2)c2nc(Nc3ccc4c(c3)CS(=O)(=O)C4)ncc21` [compound 75, 2-(2,2-Dioxo-2,3-dihydro-1H-2lambda*6*- benzo[c]thiophen-5-ylamino)-5-methyl-9-phenyl-5,7,8,9-tetrahydro-pyrimido[4,5-b][1,4]diazepin-6-one] it is under 100 nM.

`CCC(CC)N1CCC(=O)N(C)c2cnc(Nc3ccc4c(c3)CS(=O)(=O)C4)nc21` [compound 79, 2-(2,2-Dioxo-2,3-dihydro-1H-2lambda*6*- benzo[c]thiophen-5-ylamino)-9-(1-ethyl-propyl)-5-methyl-5,7,8,9-tetrahydro-pyrimido[4,5-b][1,4]diazepin-6-one]: the IC50 at AA (setting [1]) was under 100 nM. Same read-out and setting: under `CC(C)C1CC(=O)N(C)c2cnc(Nc3ccc4c(c3)CS(=O)(=O)C4)nc2N1C1CCCC1` (stereo not drawn) [compound 80, 9-Cyclopentyl-2-(2,2-dioxo-2,3-dihydro-1H-2lambda*6*-benzo[c]thiophen-5-ylamino)-8-isopropyl-5-methyl-5,7,8,9-tetrahydro-pyrimido[4,5-b][1,4]diazepin-6-one] stands under 1000 nM; under `CN1C(=O)CCN(C2CCOCC2)c2nc(Nc3ccc4c(c3)CS(=O)(=O)C4)ncc21` [compound 81, 2-(2,2-Dioxo-2,3-dihydro-1H-2lambda*6*- benzo[c]thiophen-5-ylamino)-5-methyl-9-(tetrahydro-pyran-4-yl)-5,7,8,9-tetrahydro-pyrimido[4,5-b][1,4]diazepin-6-one], under 1000 nM. Same read-out and setting: the figure for `CN1C(=O)CCN(Cc2ccccc2)c2nc(Nc3ccc4c(c3)CS(=O)(=O)C4)ncc21` [compound 82, 9-Benzyl-2-(2,2-dioxo-2,3-dihydro-1H-2lambda*6*-benzo[c]thiophen-5-ylamino)-5-methyl-5,7,8,9-tetrahydro-pyrimido[4,5-b][1,4]diazepin-6-one] is under 1000 nM; for `CN1CCN(S(=O)(=O)c2ccc(Nc3ncc4c(n3)N(C3CCCC3)CCC(=O)N4C)cc2)CC1` [compound 105, 9-Cyclopentyl-5-methyl-2-[4-(4-methyl-piperazine-1-sulfonyl)-phenylamino]-5,7,8,9-tetrahydro-pyrimido[4,5-b][1,4]diazepin-6-one] it is under 1000 nM.

As for `CN1C(=O)CCN(CC2CC2)c2nc(Nc3ccc4c(c3)CS(=O)(=O)C4)ncc21` [compound 114, 9-Cyclopropylmethyl-2-(2,2-dioxo-2,3-dihydro-1H-2lambda*6*-benzo[c]thiophen-5-ylamino)-5-methyl-5,7,8,9-tetrahydro-pyrimido[4,5-b][1,4]diazepin-6-one], at AA (setting [1]), the 50% inhibitory concentration (IC50) was under 100 nM. On to `CC(C)CCN1CCC(=O)N(C)c2cnc(Nc3ccc4c(c3)CS(=O)(=O)C4)nc21` [compound 116, 2-(2,2-Dioxo-2,3-dihydro-1H-2lambda*6*- benzo[c]thiophen-5-ylamino)-5-methyl-9-(3-methyl-butyl)-5,7,8,9-tetrahydro-pyrimido[4,5-b][1,4]diazepin-6-one], for which the 50% inhibitory concentration (IC50) on AA (setting [1]) was under 1000 nM. Take `CN1C(=O)C2(CCCC2)CN(C2CCCC2)c2nc(Nc3ccc4c(c3)CS(=O)(=O)C4)ncc21` [compound 118, (9-Cyclopentyl-2-(2,2-dioxo-2,3-dihydro-1H-2lambda*6*-benzo[c]thiophen-5-ylamino)5-methyl-6-oxo-6,7,8,9-tetrahydro-5H-spiro[pyrimido[4,5-b][1,4]diazepin-3,1′-cyclopentane]]: the IC50 on AA (setting [1]) is under 1000 nM. Still for that read-out and setting: the figure for `CCC(CC)N1CCC(=O)N(CC)c2cnc(Nc3ccc4c(c3)CS(=O)(=O)C4)nc21` [compound 120, 2-(2,2-Dioxo-2,3-dihydro-1H-2lambda*6*- benzo[c]thiophen-5-ylamino)-5-ethyl-9-(1-ethyl-propyl)-5,7,8,9-tetrahydro-pyrimido[4,5-b][1,4]diazepin-6-one] is under 100 nM. Turning to `COc1ccc(N2CCC(=O)N(C)c3cnc(Nc4ccc(C(=O)NC5CCN(Cc6ccccc6)CC5)cc4OC)nc32)cc1` [compound 316, N-(1-Benzyl-piperidin-4-yl)-3-methoxy-4-[9-(4-methoxy-phenyl)-5-methyl-6-oxo-6,7,8,9-tetrahydro-5H-pyrimido[4,5-b][1,4]diazepin-2-ylamino]-benzamide], the IC50 on PLK1 was under 1000 nM. The same measure, in the same setting: the figure for `COc1ccc(N2CCC(=O)N(C)c3cnc(Nc4ccc(C(=O)NC5CN6CCC5CC6)cc4OC)nc32)cc1` (stereo not drawn) [compound 317, N-(1-Aza-bicyclo[2.2.2]oct-3-yl)-3-methoxy-4-[9-(4-methoxy-phenyl)-5-methyl-6-oxo-6,7,8,9-tetrahydro-5H-pyrimido[4,5-b][1,4]diazepin-2-ylamino]-benzamide] is under 1000 nM.

As to `COc1ccc(N2CCC(=O)N(C)c3cnc(Nc4ccc(C(=O)NC5CC(C)(C)N(C)C(C)(C)C5)cc4OC)nc32)cc1` [compound 318], on PLK1, the IC50 is under 1000 nM.

Regarding `CCN(CC)CCNC(=O)c1ccc(Nc2ncc3c(n2)N(c2ccc(OC)cc2)CCC(=O)N3C)c(OC)c1` [compound 319, N-(2-Diethylamino-ethyl)-3-methoxy-4-[9-(4-methoxy-phenyl)-5-methyl-6-oxo-6,7,8,9-tetrahydro-5H-pyrimido[4,5-b][1,4]diazepin-2-ylamino]-benzamide], the 50% inhibitory concentration (IC50) at PLK1 was under 10000 nM.

Turning to `COc1cc(C(=O)NCC(=O)N2CCN(C(C)C)CC2)ccc1Nc1ncc2c(n1)N(C1CCCC1)CC1(CC1)C(=O)N2C` [compound 321], the 50% inhibitory concentration (IC50) at PLK1 is under 1000 nM. Still for that read-out and setting: the figure for `COc1cc(C(=O)NC2CCN(Cc3ccccc3)C2)ccc1Nc1ncc2c(n1)N(C1CCCC1)CC1(CC1)C(=O)N2C` (stereo not drawn) [compound 322, N-(Benzyl-pyrrolidin-3-yl)-4-(9-cyclopentyl-5-methyl-6-oxo-6,7,8,9-tetrahydro-5H-spiro[pyrimido[4,5-b][1,4]diazepin-3,1′-cyclopropane]-2-ylamino)-3-methoxy-N-benzamide] is under 100 nM; for `CN1CCC(NC(=O)c2ccc(Nc3ncc4c(n3)N(C3CCCC3)CC3(CC3)C(=O)N4C)c(F)c2)CC1` [compound 323, 4-(9-Cyclopentyl-5-methyl-6-oxo-6,7,8,9-tetrahydro-5H-spiro[pyrimido[4,5-b][1,4]diazepin-3,1′-cyclopropane]-2-ylamino)-3-fluoro-N-(1-methyl-piperidin-4-yl)-benzamide] it is under 100 nM. On the same count and under the same terms, the figure for `COc1cc(C(=O)NC2CCN(C)CC2)ccc1Nc1ncc2c(n1)N(C1CCCC1)CC1(CC1)C(=O)N2C` [compound 341, 4-(9-Cyclopentyl-5-methyl-6-oxo-6,7,8,9-tetrahydro-5H-spiro[pyrimido[4,5-b][1,4]diazepin-3,1′-cyclopropane]-2-ylamino)-3-methoxy-N-(1-methyl-piperidin-4-yl)-benzamide mesylate] is under 100 nM. Consider `COc1cc(C(=O)NC2CCN(CC(=O)O)CC2)ccc1Nc1ncc2c(n1)N(C1CCCC1)CCC(=O)N2C` [compound 343], for which the IC50 on PLK1 was under 1000 nM. For the molecule `COc1cc(C(=O)NC2CCN(C(C)C)CC2)ccc1Nc1ncc2c(n1)N(C1CCCC1)CCC(=O)N2C` [compound 344, 4-(9-Cyclopentyl-5-methyl-6-oxo-6,7,8,9-tetrahydro-5H-pyrimido[4,5-b][1,4]diazepin-2-ylamino)-N-(1-isopropyl-piperidin-4-yl)-3-methoxy-benzamide], the IC50 on PLK1 was under 100 nM.
